Test results as given in patent US20110263516A1, “VASODILATOR” (CALPIS CO., LTD., priority 2006, published 2011).

What was measured:
[1] = test system: thoracic aorta ring of a Wistar rat; experiment: Vasodilating test on phenylephrine-preconstricted aorta ring (Magnus apparatus); assay type: cell-based; conditions: aorta ring preconstricted with 1 μM phenylephrine; for vasodilator response at 10 mM: FIG. 1; for concentration from which the vasodilator response was observed: ten-fold increasing concentrations from 10^-9 M, change in tension
Method: The thoracic aorta of a Wistar rat was taken out, cut into 2 mm long, and made into an aorta ring. The ring was set in a Magnus apparatus (product name “micro tissue organ bath MTB-1Z”, manufactured by LABO SUPPORT CO., LTD.), and allowed to equilibrate with a constant tension. The constriction response of the aorta ring was confirmed with 50 mM KCl.
Next, the aorta ring was preliminarily constricted with 1 μM phenylephrine, and VPP and IPP prepared in Synthesis Example were added at ten-fold increasing concentrations from 10^−9 M to observe the vasodilator response through the change in tension of the aorta ring. The dose dependency of the vasodilator response was also studied.
The vasodilating test was conducted in the same way as in Example 1, except that the tripeptides VPP and IPP were replaced with amino acids, valine (Val) and proline (Pro), at the same concentration.

[2] = test system: blood vessel from which the vascular endothelium was physically removed; experiment: Confirmatory test for endothelium dependency of vasodilator response; assay type: cell-based, Wistar rat; conditions: endothelium-removed vessel compared with intact vessel; FIG. 2
Method: In order to confirm that the vasodilator effect of VPP and IPP was associated with the vascular endothelium, a vasodilating test similar to the above was conducted with VPP, using as a control a blood vessel from which the vascular endothelium was physically removed by a routine method.

Compound	vasodilator response at 10 mM [1]	concentration from which the vasodilator response was observed [1]	vasodilator response after removal of the endothelium [2]
CC(C)[C@H](N)C(=O)O [Val, valine, reference compound]	no vasodilator response was observed	–	–
O=C(O)[C@@H]1CCCN1 [Pro, proline, reference compound]	no vasodilator response was observed	–	–
Ile-Pro-Pro [IPP]	clear, transient vasodilator response	1 mM	–
Val-Pro-Pro [VPP]	clear, transient vasodilator response	1 mM	weakened
